# Measurements as given in PubChem BioAssay (NCI).
#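 Method: 48-hour compound exposure of cells in 96-well plates, five concentrations, linear interpolation of endpoints. At the GI50, growth is halved. At the TGI there is no net growth.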
# Experiments:
# Experiment in all cases: NCI tumour cell line growth inhibition, 48 h
# [1] = system: SF-268 CNS
# [2] = system: T-47D breast
# [3] = system: UACC-257 melanoma
# [4] = system: SNB-75 CNS
# [5] = system: SK-MEL-2 melanoma
# [6] = system: NCI-H460 lung
# [7] = system: MDA-MB-435
# [8] = system: CAKI-1 renal
# [9] = system: OVCAR-4 ovarian
# [10] = system: K-562 leukemia
# [11] = system: OVCAR-5 ovarian
# [12] = system: DU-145 prostate
# [13] = system: SF-539 CNS
# [14] = system: NCI-H522 lung
# [15] = system: HCC-2998 colon
# [16] = system: MCF7 breast
# [17] = system: NCI-H226 lung
# [18] = system: IGROV1 ovarian
# [19] = system: HCT-15 colon
# [20] = system: TK-10 renal
# [21] = system: LOX IMVI melanoma
# [22] = system: SK-OV-3 ovarian
# [23] = system: UACC-62 melanoma
# [24] = system: A498 renal
# [25] = system: HT29 colon
# [26] = system: COLO 205 colon
# [27] = system: SNB-19 CNS
# [28] = system: CCRF-CEM leukemia
# [29] = system: SF-295 CNS
# [30] = system: SN12C renal
# [31] = system: RPMI-8226 leukemia
# [32] = system: HL-60(TB) leukemia
# [33] = system: MOLT-4 leukemia
# [34] = system: A549 NSCLC
# [35] = system: ACHN renal
# [36] = system: HOP-92 NSCLC
# [37] = system: OVCAR-3 ovarian
# [38] = system: SK-MEL-5 melanoma
# [39] = system: U251 CNS
# [40] = system: PC-3 prostate
# [41] = system: SW-620 colon
# [42] = system: OVCAR-8 ovarian
# [43] = system: HCT-116 colon
# [44] = system: UO-31 renal
# [45] = system: BT-549 breast
# [46] = system: RXF 393 renal
# [47] = system: MDA-MB-231 breast
# [48] = system: NCI/ADR-RES ovarian
# [49] = system: HS 578T breast
# [50] = system: SR leukemia
# [51] = system: HOP-62 NSCLC
# [52] = system: SK-MEL-28 melanoma
# [53] = system: EKVX NSCLC
# [54] = system: KM12 colon
# [55] = system: 786-0 renal
# [56] = system: MALME-3M melanoma
# [57] = system: NCI-H23 lung
# [58] = system: M14 melanoma
compound,measurement,setting,value
CN1C(=O)N(c2ccccc2)C2N=C(N/N=C/c3ccccc3)SC21 (stereo unspecified),GI50,[1],5490 nM
same,TGI,[1],> 100000 nM
same,GI50,[2],2930 nM
same,TGI,[2],> 100000 nM
same,GI50,[3],28700 nM
same,TGI,[3],> 100000 nM
same,GI50,[4],363 nM
same,TGI,[4],7700 nM
same,GI50,[5],1100 nM
same,TGI,[5],> 100000 nM
same,GI50,[6],1040 nM
same,TGI,[6],19900 nM
same,GI50,[7],203 nM
same,TGI,[7],508 nM
same,GI50,[8],685 nM
same,TGI,[8],> 100000 nM
same,GI50,[9],14500 nM
same,TGI,[9],> 100000 nM
same,GI50,[10],447 nM
same,TGI,[10],> 100000 nM
same,GI50,[11],4220 nM
same,TGI,[11],> 100000 nM
same,GI50,[12],3610 nM
same,TGI,[12],> 100000 nM
same,GI50,[13],1340 nM
same,TGI,[13],7910 nM
same,GI50,[14],304 nM
same,TGI,[14],1580 nM
same,GI50,[15],2250 nM
same,TGI,[15],53200 nM
same,GI50,[16],456 nM
same,TGI,[16],> 100000 nM
same,GI50,[17],2280 nM
same,TGI,[17],66600 nM
same,GI50,[18],3860 nM
same,TGI,[18],> 100000 nM
same,GI50,[19],553 nM
same,TGI,[19],> 100000 nM
same,GI50,[20],> 100000 nM
same,TGI,[20],> 100000 nM
same,GI50,[21],931 nM
same,TGI,[21],> 100000 nM
same,GI50,[22],2820 nM
same,TGI,[22],> 100000 nM
same,GI50,[23],577 nM
same,TGI,[23],> 100000 nM
same,GI50,[24],> 100000 nM
same,TGI,[24],> 100000 nM
same,GI50,[25],935 nM
same,TGI,[25],8040 nM
same,GI50,[26],1520 nM
same,TGI,[26],5160 nM
same,GI50,[27],3770 nM
same,TGI,[27],> 100000 nM
same,GI50,[28],1930 nM
same,TGI,[28],> 100000 nM
same,GI50,[29],622 nM
same,TGI,[29],> 100000 nM
same,GI50,[30],4460 nM
same,TGI,[30],> 100000 nM
same,GI50,[31],3240 nM
same,TGI,[31],> 100000 nM
same,GI50,[32],452 nM
same,TGI,[32],6580 nM
same,GI50,[33],2380 nM
same,TGI,[33],> 100000 nM
same,GI50,[34],2480 nM
same,TGI,[34],> 100000 nM
same,GI50,[35],5190 nM
same,TGI,[35],> 100000 nM
same,GI50,[36],648 nM
same,TGI,[36],> 100000 nM
same,GI50,[37],556 nM
same,TGI,[37],> 100000 nM
same,GI50,[38],6050 nM
same,TGI,[38],67500 nM
same,GI50,[39],1830 nM
same,TGI,[39],> 100000 nM
same,GI50,[40],1590 nM
same,TGI,[40],> 100000 nM
same,GI50,[41],659 nM
same,TGI,[41],> 100000 nM
same,GI50,[42],3560 nM
same,TGI,[42],> 100000 nM
same,GI50,[43],710 nM
same,TGI,[43],> 100000 nM
same,GI50,[44],3180 nM
same,TGI,[44],> 100000 nM
same,GI50,[45],885 nM
same,TGI,[45],13700 nM
same,GI50,[46],873 nM
same,TGI,[46],3160 nM
same,GI50,[47],3620 nM
same,TGI,[47],82600 nM
same,GI50,[48],1050 nM
same,TGI,[48],> 100000 nM
same,GI50,[49],1700 nM
same,TGI,[49],> 100000 nM
same,GI50,[50],380 nM
same,TGI,[50],> 100000 nM
same,GI50,[51],2500 nM
same,TGI,[51],> 100000 nM
same,GI50,[52],16800 nM
same,TGI,[52],> 100000 nM
same,GI50,[53],3730 nM
same,TGI,[53],> 100000 nM
same,GI50,[54],819 nM
same,TGI,[54],> 100000 nM
same,GI50,[55],4210 nM
same,TGI,[55],> 100000 nM
CN(C)CCNc1ccc2ncc(C#Cc3cncc(C(=O)Nc4ccc(CN5CCN(C)CC5)c(C(F)(F)F)c4)c3)n2n1,GI50,[1],644 nM
same,TGI,[1],1470 nM
same,GI50,[2],1810 nM
same,TGI,[2],9350 nM
same,GI50,[3],4290 nM
same,TGI,[3],11100 nM
same,GI50,[4],185 nM
same,TGI,[4],982 nM
same,GI50,[5],1110 nM
same,TGI,[5],3050 nM
same,GI50,[6],406 nM
same,TGI,[6],1180 nM
same,GI50,[7],746 nM
same,TGI,[7],4510 nM
same,GI50,[8],713 nM
same,TGI,[8],3660 nM
same,GI50,[9],743 nM
same,TGI,[9],2390 nM
same,GI50,[10],130 nM
same,TGI,[10],2420 nM
same,GI50,[11],1330 nM
same,TGI,[11],5380 nM
same,GI50,[12],1000 nM
same,TGI,[12],4180 nM
same,GI50,[13],205 nM
same,TGI,[13],862 nM
same,GI50,[14],652 nM
same,TGI,[14],1440 nM
same,GI50,[15],953 nM
same,TGI,[15],2650 nM
same,GI50,[16],154 nM
same,TGI,[16],1030 nM
same,GI50,[17],483 nM
same,TGI,[17],3050 nM
same,GI50,[18],955 nM
same,TGI,[18],3980 nM
same,GI50,[19],1570 nM
same,TGI,[19],6000 nM
same,GI50,[20],1470 nM
same,TGI,[20],4360 nM
same,GI50,[21],548 nM
same,TGI,[21],1200 nM
same,GI50,[22],2690 nM
same,TGI,[22],9930 nM
same,GI50,[23],1770 nM
same,TGI,[23],7870 nM
same,GI50,[24],3100 nM
same,TGI,[24],9700 nM
same,GI50,[25],477 nM
same,TGI,[25],1950 nM
same,GI50,[26],169 nM
same,TGI,[26],541 nM
same,GI50,[27],950 nM
same,TGI,[27],4010 nM
same,GI50,[28],28.4 nM
same,TGI,[28],5170 nM
same,GI50,[29],1150 nM
same,TGI,[29],7230 nM
same,GI50,[30],774 nM
same,TGI,[30],2770 nM
same,GI50,[31],1150 nM
same,TGI,[31],2900 nM
same,GI50,[32],612 nM
same,TGI,[32],1810 nM
same,GI50,[33],226 nM
same,TGI,[33],3420 nM
same,GI50,[34],936 nM
same,TGI,[34],5460 nM
same,GI50,[56],672 nM
same,TGI,[56],1620 nM
same,GI50,[35],1770 nM
same,TGI,[35],6580 nM
same,GI50,[36],181 nM
same,TGI,[36],1850 nM
same,GI50,[37],844 nM
same,TGI,[37],2950 nM
same,GI50,[38],6000 nM
same,TGI,[38],12500 nM
same,GI50,[39],734 nM
same,TGI,[39],1890 nM
same,GI50,[40],664 nM
same,TGI,[40],3470 nM
same,GI50,[41],589 nM
same,TGI,[41],2240 nM
same,GI50,[42],672 nM
same,TGI,[42],2840 nM
same,GI50,[43],247 nM
same,TGI,[43],1500 nM
same,GI50,[44],1870 nM
same,TGI,[44],8040 nM
same,GI50,[45],987 nM
same,TGI,[45],1950 nM
same,GI50,[57],764 nM
same,TGI,[57],1830 nM
same,GI50,[46],683 nM
same,TGI,[46],1410 nM
same,GI50,[47],463 nM
same,TGI,[47],1900 nM
same,GI50,[48],9960 nM
same,TGI,[48],47700 nM
same,GI50,[49],450 nM
same,TGI,[49],1920 nM
same,GI50,[58],1010 nM
same,TGI,[58],3430 nM
same,GI50,[50],60.1 nM
same,TGI,[50],1620 nM
same,GI50,[51],564 nM
same,TGI,[51],2130 nM
same,GI50,[52],5740 nM
same,TGI,[52],12000 nM
same,GI50,[53],1530 nM
same,TGI,[53],5540 nM
same,GI50,[54],76.5 nM
same,TGI,[54],918 nM
same,GI50,[55],1040 nM
same,TGI,[55],2460 nM
